Measurements taken from patent publication US6593323B1, “Benzimidazole compounds and drugs containing the same” (Fuji Photo Film Co., Ltd., priority 1999, dated 2003).

System: mouse peritoneal macrophages
Assay: Suppression of foaming of macrophages: cholesterol ester (CE) production in mouse peritoneal macrophages loaded with liposomes
Type: cell-based
Settings: for CE yield (%): test compound 5 μM, 16 h with liposomes, cholesterol ester yield relative to control without test compound = 100% (smaller value = more potent suppression); for suppression of foaming of macrophages / cholesterol ester synthesis (result in words): mouse peritoneal macrophages, 5 μM
Description: Activity of the compounds of the present invention for suppressing the foaming of macrophages, which triggers arterial sclerosis, was examined. (1) In vitro experiment using mouse peritoneal macrophages.
15-Week old female ICR mice (Nippon SLC) were subjected to bleeding by cutting off their cervicalis, and Hanks buffer (Nippon Seiyaku) was injected into their peritoneal cavities. After abdominal regions of the mice were massaged, the buffer was recovered immediately, and then the resulting buffer was centrifuged at 1,000 r.p.m. for five minutes to collect peritoneal macrophages. Then, the collected macrophages were suspended in GTI medium (Wako Pure Chemical Industries), and inoculated onto a 24-well microtiter plate. After the macrophages were cultivated at 37° C. under 5% CO2 for two hours, the culture medium was changed with Dulbecco Modified Eagle Medium (MEM, Nippon Seiyaku). The macrophages were further cultivated at 37° C. under 5% CO2 for 16 hours, and then a test compound and liposomes were added to the culture.
1) Test compound: dissolved in DMSO (Wako Pure Chemical Industries),
2) Liposomes: PC/PS/DCP/CHOL=50/50/10/75 (nmol)
PC: Phosphatidylcholine (Funakoshi);
PS: Phosphatidylserine (Funakoshi);
DCP: Dicetylphosphate (Funakoshi);
CHOL: Cholesterol (Sigma)
After cultivation was further continued at 37° C. under 5% CO2 for 16 hours, lipid fraction was extracted with chloroform and methanol. The extracted lipid fraction was dissolved in isopropyl alcohol, and the produced cholesterol ester (CE) was quantified by an enzymatic luminescence method. Yield of the cholesterol ester was calculated as a relative ratio based on yield of the control as 100% where no test compound was added.

Compound | CE yield (%) | suppression of foaming of macrophages / cholesterol ester synthesis (result in words)
3-(5-(1-methylbenzimidazolyl-2-thio)pentyl)-5-methyl-2,4-oxazolidinedione [Compound 14] | 20 | –
3-(6-(5-chlorobenzothiazolyl-2-thio)hexyl)-2,4-thiazolidinedione [Compound 16] | 15 | –
O=C1CSC(=O)N1CCCCCSc1nc2ccccc2[nH]1 [Compound 2, 3-(5-(benzimidazolyl-2-thio)pentyl)-2,4-thiazolidinedione] | 19 | –
O=C1CCC(=O)N1CCCCCSc1nc2ccccc2[nH]1 [Compound 11, N-(5-(benzimidazolyl-2-thio)pentyl)succinimide] | 19 | –
CCC(=O)n1c(SCCCCCN2C(=O)OC(C)C2=O)nc2ccccc21 (stereo not shown) [Compound 15, 3-(5-(1-propionylbenzimidazolyl-2-thio)pentyl)-5-methyl-2,4-oxazolidinedione] | 12 | –
O=C1CSC(=O)N1CCOCCSc1nc2ccccc2[nH]1 [Compound 22] | 23 | –
O=C1CSC(=O)N1CCOCCOCCSc1nc2ccccc2[nH]1 [Compound 23, 3-(2-(2-(2-benzimidazolyl-2-thio)ethoxy)ethoxy)ethyl-2,4-thiazolidinedione] | 22 | –
O=C1c2ccccc2C(=O)N1CCCCSCc1nc2ccccc2[nH]1 [Ref. 1, reference compound] | 89 | completely inactive
CC(C)Oc1cccc(OC(C)C)c1NC(=O)CN1CCN(CCCSc2nc3ccccc3[nH]2)CC1 [Ref. 2, reference compound] | 95 | almost no inhibitory effect
CCCCCCN(CCCCCSc1nc2ccccc2[nH]1)C(=O)Nc1ccc(F)cc1F [Ref. 3, reference compound] | 78 | almost no inhibitory effect
